Experiment [1] concerns the target T1, IDO1 (Homo sapiens (Human), UniProt P14902). In words: IDO1 Cellular Assay in Frozen HEK293 Cells Transiently Transfected with Human IDO1. The format is cell-based. To be noted: HEK293 cells transiently transfected with human IDO1; read-out: IDO1 HEK293 Cell Assay, IC50.
For experiment [2], the target named is T1, IDO1. The experiment in a line: IDO1 Enzyme Assay. To be noted: HIS-tagged recombinant IDO1, 40 nM.
The target in experiment [3] is T1, IDO1. In words: IDO1 Cellular Assay in Hela Cells Stimulated with IFNγ. The format is cell-based. The settings on record: Hela cells stimulated with IFNγ 100 ng/mL; read-out: IDO1 HELA Cell Assay, IC50.
Setting [4] is: read-out: IDO1 Enzyme Assay, IC50.

T1 sequence (P14902 whole entry): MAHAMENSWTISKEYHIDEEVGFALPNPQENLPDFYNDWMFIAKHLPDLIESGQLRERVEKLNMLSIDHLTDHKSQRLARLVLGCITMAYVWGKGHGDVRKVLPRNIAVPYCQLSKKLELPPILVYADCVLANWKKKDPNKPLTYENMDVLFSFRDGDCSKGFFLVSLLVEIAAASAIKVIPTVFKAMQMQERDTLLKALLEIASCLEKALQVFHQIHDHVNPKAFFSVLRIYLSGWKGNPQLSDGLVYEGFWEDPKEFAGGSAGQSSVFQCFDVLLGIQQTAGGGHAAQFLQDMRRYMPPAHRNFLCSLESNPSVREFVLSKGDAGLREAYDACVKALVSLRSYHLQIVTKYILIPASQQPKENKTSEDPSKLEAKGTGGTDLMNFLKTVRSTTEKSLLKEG

As usually defined, the IC50 is the concentration needed to halve the response being measured. Take `O=C(CSc1nonc1C(=NO)Nc1ccc(F)c(Br)c1)NCCO` [Example 112, 2-({4-[N-(3-bromo-4-fluorophenyl)-N′-hydroxycarbamimidoyl]-1,2,5-oxadiazol-3-yl}sulfanyl)-N-(2-hydroxyethyl)acetamide]: the IC50 came out at 0.04 µM in experiment [1]; 54.2 nM in experiment [2] (IDO1 Enzyme Assay, IC50, nM); 0.0408 µM in experiment [3].

In the case of `O=C(CSc1nonc1/C(=N/O)Nc1ccc(F)c(Br)c1)NC1CC1` [Example 113, 2-({4-[N-(3-bromo-4-fluorophenyl)-N′-hydroxycarbamimidoyl]-1,2,5-oxadiazol-3-yl}sulfanyl)-N-cyclopropylacetamide], the IC50 in experiment [1] amounted to 0.0354 µM; in experiment [2] (IDO1 Enzyme Assay, IC50, nM), 47.3 nM; in experiment [3] it was 0.0765 µM.

Take `O=C(CSc1nonc1C(=NO)Nc1ccc(F)c(Br)c1)NC1CCC1` [Example 114, 2-({4-[N-(3-bromo-4-fluorophenyl)-N′-hydroxycarbamimidoyl]-1,2,5-oxadiazol-3-yl}sulfanyl)-N-cyclobutylacetamide]: the IC50 in experiment [1] was 0.097 µM; in experiment [2] (IDO1 Enzyme Assay, IC50, nM) it was 36.9 nM; in experiment [3], 0.148 µM.

Consider `CC(=O)CSc1nonc1/C(=N/O)Nc1ccc(F)c(Br)c1` [Example 115, N-(3-bromo-4-fluorophenyl)-N′-hydroxy-4-[(2-oxopropyl)sulfanyl]-1,2,5-oxadiazole-3-carboximidamide], for which the IC50 in experiment [1] is 0.105 µM; in experiment [2] (setting [4]), 51 nM; in experiment [3], 0.168 µM.

Consider `CN1C(=O)NC[C@H]1CSc1nonc1/C(=N/O)Nc1ccc(F)c(Br)c1` [Example 121, N-(3-bromo-4-fluorophenyl)-N′-hydroxy-4-({[(4S)-3-methyl-2-oxoimidazolidin-4-yl]methyl}sulfanyl)-1,2,5-oxadiazole-3-carboximidamide], for which the values for the IC50 in experiment [1], in experiment [2] (setting [4]) and in experiment [3] were 0.0458 µM, 47.7 nM and 0.0397 µM, respectively.

As for `CN1C[C@@H](CSc2nonc2/C(=N/O)Nc2ccc(F)c(Br)c2)NC1=O` [Example 122, N-(3-bromo-4-fluorophenyl)-N′-hydroxy-4-({[(4S)-1-methyl-2-oxoimidazolidin-4-yl]methyl}sulfanyl)-1,2,5-oxadiazole-3-carboximidamide], the IC50 was 0.0233 µM in experiment [1], 37.7 nM in experiment [2] (setting [4]) and 0.0267 µM in experiment [3].

As to `CN1C[C@H](CSc2nonc2/C(=N/O)Nc2ccc(F)c(Br)c2)NC1=O` [Example 123, N-(3-bromo-4-fluorophenyl)-N′-hydroxy-4-({[(4R)-1-methyl-2-oxoimidazolidin-4-yl]methyl}sulfanyl)-1,2,5-oxadiazole-3-carboximidamide], the IC50 in experiment [1] is 0.0378 µM; in experiment [2] (setting [4]), 44.2 nM; in experiment [3], 0.0757 µM.

As for `O=C1NCC(CSc2nonc2/C(=N/O)Nc2ccc(F)c(Br)c2)O1` (stereo not drawn) [Example 124, N-(3-bromo-4-fluorophenyl)-N′-hydroxy-4-{[(2-oxo-1,3-oxazolidin-5-yl)methyl]sulfanyl}-1,2,5-oxadiazole-3-carboximidamide], the IC50 in experiment [1] came to 0.0656 µM; in experiment [2] (setting [4]), 34.5 nM; in experiment [3], 0.0562 µM.

Consider `O/N=C(\Nc1ccc(F)c(Br)c1)c1nonc1SCCN1CCOCC1` [Example 126, N-(3-bromo-4-fluorophenyl)-N′-hydroxy-4-[(2-morpholin-4-ylethyl)sulfanyl]-1,2,5-oxadiazole-3-carboximidamide], for which the figures for the IC50 in experiment [1], in experiment [2] (setting [4]) and in experiment [3] were 0.0529 µM, 57.5 nM and 0.0926 µM, respectively.

Turning to `CCCCNC(=O)NCCSc1nonc1C(=NO)Nc1ccc(F)c(Br)c1` [Example 127, N-(3-bromo-4-fluorophenyl)-4-({2-[(bulylcarbamoyl)amino]ethyl}sulfanyl)-N′-hydroxy-1,2,5-oxadiazole-3-carboximidamide], the IC50 in experiment [1] is 0.115 µM; in experiment [2] (setting [4]) it was 33.5 nM; in experiment [3], 0.219 µM.

Take `CCOC(=O)NC(=O)NCCSc1nonc1C(=NO)Nc1ccc(F)c(Br)c1` [Example 128, ethyl {[2-({4-[N-(3-bromo-4-fluorophenyl)-N′-hydroxycarbamimidoyl]-1,2,5-oxadiazol-3-yl}sulfanyl)ethyl]carbamoyl} carbamate]: the results for the IC50 in experiment [1], in experiment [2] (setting [4]) and in experiment [3] were 0.149 µM, 110 nM and 0.169 µM, respectively.

Turning to `O=C(NCCSc1nonc1C(=NO)Nc1ccc(F)c(Br)c1)NC1CCCC1` [Example 129, N-(3-bromo-4-fluorophenyI)-4-({2-[(cyclopentylcarbamoyl)amino]ethyl}sulfanyl)-N′-hydroxy-1,2,5-oxadiazole-3-carboximidamide], the IC50 stood at 0.258 µM in experiment [1], 35.3 nM in experiment [2] (setting [4]) and 0.702 µM in experiment [3].

Consider `O=C(NCCSc1nonc1C(=NO)Nc1ccc(F)c(Br)c1)NCC1CCOCC1` [Example 130, N-(3-bromo-4-fluorophenyl)-N′-hydroxy-4-[(2-{[(tetrahydro-2H-pyran-4-ylmethyl)carbamoyl]amino}ethyl)sulfanyl]-1,2,5-oxadiaxole-3-carboximidamide], for which the IC50 in experiment [1] was found to be 0.206 µM; in experiment [2] (setting [4]), 37 nM; in experiment [3] it was 0.371 µM.

For the compound `O=C(NCCSc1nonc1C(=NO)Nc1ccc(F)c(Br)c1)NCc1ccco1` [Example 131, N-(3-bromo-4-fluorophenyl)-4-[(2-{[(furan-2-ylmethyl)carbamoyl]amino}ethyl)sulfanyl]-N′-hydroxy-1,2,5-oxadiazole-3-carboximidamide], the IC50 amounted to 0.0667 µM in experiment [1]; 34.1 nM in experiment [2] (IDO1 Enzyme Assay, IC50, nM); 0.167 µM in experiment [3].

Turning to `COCCNC(=O)NCCSc1nonc1C(=NO)Nc1ccc(F)c(Br)c1` [Example 132, N-(3-bromo-4-fluorophenyl)-N′-hydroxy-4-[(2-{[(2-methoxyethyl)carbamoyl]amino}ethyl)sulfanyl]-1,2,5-oxadiazole-3-carboximidamide], the IC50 in experiment [1] is 0.0331 µM; in experiment [2] (IDO1 Enzyme Assay, IC50, nM), 32.1 nM; in experiment [3], 0.0317 µM.

For `Cn1c(CSc2nonc2/C(=N/O)Nc2ccc(F)c(Cl)c2)n[nH]c1=O` [Example 133, N-(3-chloro-4-fluorophenyl)-N′-hydroxy-4-{[(4-methyl-5-oxo-4,5-dihydro-1H-1,2,4-triazol-3-yl)methyl]sulfanyl}-1,2,5-oxadiazole-3-carboximidamide], the IC50 came to 0.226 µM in experiment [1], 71.5 nM in experiment [2] (setting [4]) and 0.235 µM in experiment [3].

With `CC(O)CNC(=O)CSc1nonc1C(=NO)Nc1ccc(F)c(Br)c1` (stereo not drawn) [Example 138, 2-({4-[N-(3-bromo-4-fluorophenyl)-N′-hydroxycarbamimidoyl]-1,2,5-oxadiazol-3-yl}sulfanyl)-N-(2-hydroxypropyl)acetamide], the IC50 in experiment [1] came to 0.06 µM; in experiment [2] (IDO1 Enzyme Assay, IC50, nM), 38.7 nM; in experiment [3] it was 0.0547 µM.

Turning to `O=c1[nH]nc(CCSc2nonc2/C(=N/O)Nc2ccc(F)c(Br)c2)o1` [Example 141, N-(3-bromo-4-fluorophenyl)-N′-hydroxy-4-{[2-(5-oxo-4,5-dihydro-1,3,4-oxadiazol-2-yl)ethyl]sulfanyl}-1,2,5-oxadiazole-3-carboximidamide], the IC50 worked out at 0.131 µM in experiment [1], 72.2 nM in experiment [2] (setting [4]) and 0.112 µM in experiment [3].

As to `CC(=O)NCCSc1nonc1/C(=N/O)Nc1ccc(F)c(C(F)F)c1` [Example 142, N-{2-[(4-{N-[3-(difluoromethyl)-4-fluorophenyl]-N′-hydroxycarbamimidoyl}-1,2,5-oxadiazol-3-yl)sulfanyl]ethyl}acetamide], the IC50 was 0.0469 µM in experiment [1], 54 nM in experiment [2] (setting [4]) and 0.0572 µM in experiment [3].

Turning to `C[C@@H](O)[C@@H](CO)NC(=O)CSc1nonc1/C(=N/O)Nc1ccc(F)c(Br)c1` [Example 143, 2-({4-[N-(3-bromo-4-fluorophenyl)-N′-hydroxycarbamimidoyl]-1,2,5-oxadiazol-3-yl}sulfanyl)-N-[(1R,2R)-2-hydroxy-1-(hydroxymethyl)propyl]acetamide], the figures for the IC50 in experiment [1], in experiment [2] (setting [4]) and in experiment [3] were 0.0651 µM, 53.9 nM and 0.0348 µM, respectively.

As for `CN1C(=O)NC[C@@H]1CSc1nonc1/C(=N/O)Nc1ccc(F)c(C#N)c1` [Example 150, N-(3-cyano-4-fluorophenyl)-N′-hydroxy-4-({[(4R)-3-methyl-2-oxoimidazolidin-4-yl]methyl}sulfanyl)-1,2,5-oxadiazole-3-carboximidamide], the IC50 in experiment [1] amounted to 0.422 µM; in experiment [2] (setting [4]), 173 nM; in experiment [3] it was 0.82 µM.

Take `Cc1nccn1CCSc1nonc1C(=NO)Nc1ccc(F)c(Br)c1` [Example 151, N-(3-bromo-4-fluorophenyl)-N′-hydroxy-4-{[2-(2-methyl-1H-imidazol-1-yl)ethyl]sulfanyl}-1,2,5-oxadiazole-3-carboximidamide]: the IC50 in experiment [1] stood at 0.0793 µM; in experiment [2] (IDO1 Enzyme Assay, IC50, nM), 96.3 nM; in experiment [3], 0.156 µM.

In the case of `ON=C(Nc1ccc(F)c(Br)c1)c1nonc1SCCc1cscn1` [Example 152, N-(3-bromo-4-fluorophenyl)-N′-hydroxy-4-{[2-(1,3-thiazol-4-yl)ethyl]sulfanyl}-1,2,5-oxadiazole-3-carboximidamide], the IC50 in experiment [1] was 0.166 µM; in experiment [2] (IDO1 Enzyme Assay, IC50, nM) it was 97.6 nM; in experiment [3], 0.331 µM.

Regarding `Cn1ccnc1CSc1nonc1C(=NO)Nc1ccc(F)c(Br)c1` [Example 153, N-(3-bromo-4-fluorophenyl)-N′-hydroxy-4-{[(1-methyl-1H-imidazol-2-yl)methyl]sulfanyl}-1,2,5-oxadiazole-3-carboximidamide], the IC50 in experiment [1] was determined as 0.0657 µM; in experiment [2] (IDO1 Enzyme Assay, IC50, nM), 85.4 nM; in experiment [3] it was 0.0694 µM.

Consider `ON=C(Nc1ccc(F)c(Br)c1)c1nonc1SCCn1cncn1` [Example 154, N-(3-bromo-4-fluorophenyl)-N′-hydroxy-4-{[2-(1H-1,2,4-triazol-1-yl)ethyl]sulfanyl}-1,2,5-oxadiazole-3-carboximidamide], for which the IC50 came to 0.0261 µM in experiment [1]; 31.4 nM in experiment [2] (IDO1 Enzyme Assay, IC50, nM); 0.041 µM in experiment [3].

Source of the values: US10538497B2, “Compounds as indoleamine 2,3-dioxygenase inhibitors” (Merck Sharp & Dohme Corp., priority 2015, dated 2020).
